Results: ChEMBL document CHEMBL3632539, “Identification of Bidentate Salicylic Acid Inhibitors of PTP1B” (ACS Med Chem Lett, 2015)
pIC50, pKi: −log10 of the molar value. Active and inactive are the calls of the source. No cut-off for these calls is given here.

Tests used:
CHO [1] = experiment: Cytotoxicity against CHO cells expressing human insulin receptor at 0.78 to 50 uM after 72 hrs by cell-titer blue assay; assay type: cell-based, Cricetulus griseus; conditions: chinese hamster
CHO [2] = experiment: Inhibition of PTP1B in CHO cells assessed as increase in phosphorylation of transfected human insulin receptor by western blot analysis; assay type: cell-based; conditions: Cricetulus griseus
[3] = target: T1, Tyrosine-protein phosphatase non-receptor type 1 (Homo sapiens, UniProt P18031); experiment: Competitive inhibition of GST-tagged PTP1B (unknown origin) by plate reader analysis using DiFMUP as substrate
T1 sequence (P18031 whole entry): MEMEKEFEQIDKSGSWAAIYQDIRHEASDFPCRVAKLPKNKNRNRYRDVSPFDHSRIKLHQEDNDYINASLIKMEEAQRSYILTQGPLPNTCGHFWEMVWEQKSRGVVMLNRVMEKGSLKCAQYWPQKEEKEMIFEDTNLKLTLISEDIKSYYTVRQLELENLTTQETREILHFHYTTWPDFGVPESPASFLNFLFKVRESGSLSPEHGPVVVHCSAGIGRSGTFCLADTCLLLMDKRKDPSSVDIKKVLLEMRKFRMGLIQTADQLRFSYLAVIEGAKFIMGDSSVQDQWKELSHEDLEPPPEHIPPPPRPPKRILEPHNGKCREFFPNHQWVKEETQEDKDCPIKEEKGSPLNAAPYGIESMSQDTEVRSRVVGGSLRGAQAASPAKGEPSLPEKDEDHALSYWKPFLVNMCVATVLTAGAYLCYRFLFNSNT

[4] = target: T2, Tyrosine-protein phosphatase non-receptor type 2 (Homo sapiens) (UniProt P17706); experiment: Inhibition of GST-tagged TCPTP (unknown origin) at 10 uM by plate reader analysis using DiFMUP as substrate
T2 sequence (whole entry): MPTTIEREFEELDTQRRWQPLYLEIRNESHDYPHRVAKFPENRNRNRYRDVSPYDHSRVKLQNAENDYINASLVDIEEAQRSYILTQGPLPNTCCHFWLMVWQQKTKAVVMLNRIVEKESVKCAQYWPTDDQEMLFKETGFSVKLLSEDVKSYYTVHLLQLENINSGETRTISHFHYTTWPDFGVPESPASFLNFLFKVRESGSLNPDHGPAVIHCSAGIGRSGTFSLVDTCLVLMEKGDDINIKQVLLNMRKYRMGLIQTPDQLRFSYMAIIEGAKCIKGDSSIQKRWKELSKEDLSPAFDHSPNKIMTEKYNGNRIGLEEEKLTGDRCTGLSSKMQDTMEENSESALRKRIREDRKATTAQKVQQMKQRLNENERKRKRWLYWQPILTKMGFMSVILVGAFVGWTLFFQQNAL

[5] = target: T3, Tyrosine-protein phosphatase non-receptor type 1 (Homo sapiens) (UniProt P18031); experiment: Inhibition of GST-tagged PTP1B (unknown origin) at 10 uM by plate reader analysis using DiFMUP as substrate
T3 sequence (whole entry): T1 sequence (P18031 whole entry)

[6] = target: T4, Receptor-type tyrosine-protein phosphatase S (Homo sapiens, UniProt Q13332); experiment: Inhibition of GST-tagged PTP-sigma (unknown origin) at 10 uM by plate reader analysis using DiFMUP as substrate
T4 sequence (Q13332 whole entry): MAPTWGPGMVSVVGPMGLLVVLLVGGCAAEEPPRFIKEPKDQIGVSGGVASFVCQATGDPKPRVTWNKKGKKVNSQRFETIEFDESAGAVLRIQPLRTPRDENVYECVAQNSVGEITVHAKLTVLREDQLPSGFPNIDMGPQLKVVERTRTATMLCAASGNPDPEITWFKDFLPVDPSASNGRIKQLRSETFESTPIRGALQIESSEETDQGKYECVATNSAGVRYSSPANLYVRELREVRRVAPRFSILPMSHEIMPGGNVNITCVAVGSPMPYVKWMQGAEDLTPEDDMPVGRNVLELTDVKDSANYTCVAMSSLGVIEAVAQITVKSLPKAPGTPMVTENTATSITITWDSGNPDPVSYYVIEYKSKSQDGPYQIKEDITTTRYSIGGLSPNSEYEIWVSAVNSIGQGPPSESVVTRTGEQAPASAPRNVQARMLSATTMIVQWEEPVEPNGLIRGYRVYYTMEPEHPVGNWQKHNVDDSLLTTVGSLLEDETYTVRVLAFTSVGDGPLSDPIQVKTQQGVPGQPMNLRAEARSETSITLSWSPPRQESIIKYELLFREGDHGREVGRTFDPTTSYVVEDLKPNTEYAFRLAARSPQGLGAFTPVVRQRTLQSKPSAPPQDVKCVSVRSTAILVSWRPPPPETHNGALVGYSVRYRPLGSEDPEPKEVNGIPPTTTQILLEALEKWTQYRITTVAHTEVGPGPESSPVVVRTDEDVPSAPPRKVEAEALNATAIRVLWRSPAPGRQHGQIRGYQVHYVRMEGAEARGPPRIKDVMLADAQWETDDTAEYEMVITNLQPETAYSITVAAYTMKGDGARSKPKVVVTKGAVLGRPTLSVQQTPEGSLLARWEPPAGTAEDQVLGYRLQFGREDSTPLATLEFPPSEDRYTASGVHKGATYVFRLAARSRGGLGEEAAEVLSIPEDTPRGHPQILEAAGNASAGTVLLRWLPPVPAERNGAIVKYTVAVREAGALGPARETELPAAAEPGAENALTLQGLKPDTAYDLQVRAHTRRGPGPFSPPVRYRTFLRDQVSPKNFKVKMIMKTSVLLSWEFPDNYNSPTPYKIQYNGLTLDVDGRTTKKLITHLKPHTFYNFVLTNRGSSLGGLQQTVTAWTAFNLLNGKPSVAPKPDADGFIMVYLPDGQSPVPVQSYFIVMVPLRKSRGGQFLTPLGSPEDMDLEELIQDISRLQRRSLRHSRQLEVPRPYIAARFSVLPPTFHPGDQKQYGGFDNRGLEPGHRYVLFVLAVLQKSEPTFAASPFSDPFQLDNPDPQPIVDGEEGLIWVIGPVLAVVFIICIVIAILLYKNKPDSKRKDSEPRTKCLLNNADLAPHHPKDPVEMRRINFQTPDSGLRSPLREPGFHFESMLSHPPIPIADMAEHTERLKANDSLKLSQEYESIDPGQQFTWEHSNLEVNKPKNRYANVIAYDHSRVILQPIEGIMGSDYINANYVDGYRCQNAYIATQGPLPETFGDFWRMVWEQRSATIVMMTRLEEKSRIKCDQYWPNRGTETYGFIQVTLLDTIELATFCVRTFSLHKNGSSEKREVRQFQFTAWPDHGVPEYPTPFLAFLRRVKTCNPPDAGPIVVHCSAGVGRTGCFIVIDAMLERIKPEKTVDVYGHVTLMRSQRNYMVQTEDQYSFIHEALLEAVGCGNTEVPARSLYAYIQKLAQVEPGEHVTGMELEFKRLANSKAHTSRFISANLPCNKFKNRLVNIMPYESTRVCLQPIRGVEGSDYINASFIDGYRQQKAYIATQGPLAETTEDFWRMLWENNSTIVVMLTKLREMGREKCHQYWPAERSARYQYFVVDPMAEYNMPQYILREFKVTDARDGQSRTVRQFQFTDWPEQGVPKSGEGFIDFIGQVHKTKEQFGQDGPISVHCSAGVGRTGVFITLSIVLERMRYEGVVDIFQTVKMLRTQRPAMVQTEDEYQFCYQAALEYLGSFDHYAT

Homo sapiens [7] = species: Homo sapiens; experiment: Inhibition of GST-tagged PRL2 A/S mutant (unknown origin) at 10 uM by plate reader analysis using DiFMUP as substrate
[8] = target: Receptor-type tyrosine-protein phosphatase F (Homo sapiens) (UniProt P10586); experiment: Inhibition of GST-tagged LAR (unknown origin) at 10 uM by plate reader analysis using DiFMUP as substrate
Chain of Receptor-type tyrosine-protein phosphatase F (Homo sapiens) (P10586 whole entry): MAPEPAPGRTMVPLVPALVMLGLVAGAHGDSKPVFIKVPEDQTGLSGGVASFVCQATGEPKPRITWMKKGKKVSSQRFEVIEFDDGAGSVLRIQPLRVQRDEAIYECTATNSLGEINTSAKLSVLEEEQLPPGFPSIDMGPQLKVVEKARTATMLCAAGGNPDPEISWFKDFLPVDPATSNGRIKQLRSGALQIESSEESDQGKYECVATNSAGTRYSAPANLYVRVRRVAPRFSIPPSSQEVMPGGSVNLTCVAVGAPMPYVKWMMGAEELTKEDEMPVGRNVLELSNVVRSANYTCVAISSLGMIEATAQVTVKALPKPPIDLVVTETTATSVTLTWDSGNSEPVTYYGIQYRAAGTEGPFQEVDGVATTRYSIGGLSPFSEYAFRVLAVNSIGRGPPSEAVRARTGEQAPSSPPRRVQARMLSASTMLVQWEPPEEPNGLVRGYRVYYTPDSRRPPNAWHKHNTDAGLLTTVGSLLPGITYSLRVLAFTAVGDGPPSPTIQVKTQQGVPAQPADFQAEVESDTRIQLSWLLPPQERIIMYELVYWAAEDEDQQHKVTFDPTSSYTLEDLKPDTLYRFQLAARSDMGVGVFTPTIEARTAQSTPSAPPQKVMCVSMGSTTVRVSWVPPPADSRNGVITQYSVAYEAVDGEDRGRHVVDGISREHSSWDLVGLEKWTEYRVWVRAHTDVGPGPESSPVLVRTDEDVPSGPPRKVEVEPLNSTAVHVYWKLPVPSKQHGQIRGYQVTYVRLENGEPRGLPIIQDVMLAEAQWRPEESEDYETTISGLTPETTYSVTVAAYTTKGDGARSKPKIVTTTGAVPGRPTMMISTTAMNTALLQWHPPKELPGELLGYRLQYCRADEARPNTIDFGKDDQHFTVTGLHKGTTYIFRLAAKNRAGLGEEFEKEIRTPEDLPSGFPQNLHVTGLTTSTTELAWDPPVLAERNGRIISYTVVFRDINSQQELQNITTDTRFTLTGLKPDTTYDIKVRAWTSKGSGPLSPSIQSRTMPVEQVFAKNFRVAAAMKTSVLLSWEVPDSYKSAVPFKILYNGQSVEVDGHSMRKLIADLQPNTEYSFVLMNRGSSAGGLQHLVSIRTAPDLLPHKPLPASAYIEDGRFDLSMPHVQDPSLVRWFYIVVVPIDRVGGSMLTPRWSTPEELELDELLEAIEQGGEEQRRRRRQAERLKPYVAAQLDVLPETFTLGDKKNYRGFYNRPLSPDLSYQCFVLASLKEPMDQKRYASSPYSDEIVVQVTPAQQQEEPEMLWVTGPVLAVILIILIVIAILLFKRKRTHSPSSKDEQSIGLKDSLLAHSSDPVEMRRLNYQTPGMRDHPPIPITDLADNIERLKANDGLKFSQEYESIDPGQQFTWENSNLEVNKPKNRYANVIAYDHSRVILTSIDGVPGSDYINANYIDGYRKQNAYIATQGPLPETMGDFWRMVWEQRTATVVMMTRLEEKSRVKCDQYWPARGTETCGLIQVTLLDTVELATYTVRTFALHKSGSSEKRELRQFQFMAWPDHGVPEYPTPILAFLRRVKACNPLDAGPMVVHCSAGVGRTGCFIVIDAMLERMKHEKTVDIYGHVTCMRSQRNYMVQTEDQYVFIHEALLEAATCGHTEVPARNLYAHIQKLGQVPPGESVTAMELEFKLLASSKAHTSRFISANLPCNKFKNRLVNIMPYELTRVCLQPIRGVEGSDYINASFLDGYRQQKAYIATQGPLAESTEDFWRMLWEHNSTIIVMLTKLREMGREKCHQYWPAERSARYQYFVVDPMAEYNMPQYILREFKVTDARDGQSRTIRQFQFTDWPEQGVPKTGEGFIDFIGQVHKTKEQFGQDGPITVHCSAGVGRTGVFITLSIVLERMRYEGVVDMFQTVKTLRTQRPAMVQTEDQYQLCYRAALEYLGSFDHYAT

[9] = target: T5, Dual specificity protein phosphatase 22 (Homo sapiens) (UniProt Q9NRW4); experiment: Inhibition of GST-tagged MKPX (unknown origin) at 10 uM by plate reader analysis using DiFMUP as substrate
T5 sequence (whole entry): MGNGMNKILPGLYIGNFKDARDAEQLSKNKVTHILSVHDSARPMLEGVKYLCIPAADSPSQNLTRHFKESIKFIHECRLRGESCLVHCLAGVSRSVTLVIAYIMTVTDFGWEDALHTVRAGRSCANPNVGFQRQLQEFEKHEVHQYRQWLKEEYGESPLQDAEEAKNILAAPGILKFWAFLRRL

[10] = target: T6, Receptor-type tyrosine-protein phosphatase C (Homo sapiens) (UniProt P08575); experiment: Inhibition of GST-tagged CD45 D1D2 domain (unknown origin) at 10 uM by plate reader analysis using DiFMUP as substrate
T6 sequence (whole entry): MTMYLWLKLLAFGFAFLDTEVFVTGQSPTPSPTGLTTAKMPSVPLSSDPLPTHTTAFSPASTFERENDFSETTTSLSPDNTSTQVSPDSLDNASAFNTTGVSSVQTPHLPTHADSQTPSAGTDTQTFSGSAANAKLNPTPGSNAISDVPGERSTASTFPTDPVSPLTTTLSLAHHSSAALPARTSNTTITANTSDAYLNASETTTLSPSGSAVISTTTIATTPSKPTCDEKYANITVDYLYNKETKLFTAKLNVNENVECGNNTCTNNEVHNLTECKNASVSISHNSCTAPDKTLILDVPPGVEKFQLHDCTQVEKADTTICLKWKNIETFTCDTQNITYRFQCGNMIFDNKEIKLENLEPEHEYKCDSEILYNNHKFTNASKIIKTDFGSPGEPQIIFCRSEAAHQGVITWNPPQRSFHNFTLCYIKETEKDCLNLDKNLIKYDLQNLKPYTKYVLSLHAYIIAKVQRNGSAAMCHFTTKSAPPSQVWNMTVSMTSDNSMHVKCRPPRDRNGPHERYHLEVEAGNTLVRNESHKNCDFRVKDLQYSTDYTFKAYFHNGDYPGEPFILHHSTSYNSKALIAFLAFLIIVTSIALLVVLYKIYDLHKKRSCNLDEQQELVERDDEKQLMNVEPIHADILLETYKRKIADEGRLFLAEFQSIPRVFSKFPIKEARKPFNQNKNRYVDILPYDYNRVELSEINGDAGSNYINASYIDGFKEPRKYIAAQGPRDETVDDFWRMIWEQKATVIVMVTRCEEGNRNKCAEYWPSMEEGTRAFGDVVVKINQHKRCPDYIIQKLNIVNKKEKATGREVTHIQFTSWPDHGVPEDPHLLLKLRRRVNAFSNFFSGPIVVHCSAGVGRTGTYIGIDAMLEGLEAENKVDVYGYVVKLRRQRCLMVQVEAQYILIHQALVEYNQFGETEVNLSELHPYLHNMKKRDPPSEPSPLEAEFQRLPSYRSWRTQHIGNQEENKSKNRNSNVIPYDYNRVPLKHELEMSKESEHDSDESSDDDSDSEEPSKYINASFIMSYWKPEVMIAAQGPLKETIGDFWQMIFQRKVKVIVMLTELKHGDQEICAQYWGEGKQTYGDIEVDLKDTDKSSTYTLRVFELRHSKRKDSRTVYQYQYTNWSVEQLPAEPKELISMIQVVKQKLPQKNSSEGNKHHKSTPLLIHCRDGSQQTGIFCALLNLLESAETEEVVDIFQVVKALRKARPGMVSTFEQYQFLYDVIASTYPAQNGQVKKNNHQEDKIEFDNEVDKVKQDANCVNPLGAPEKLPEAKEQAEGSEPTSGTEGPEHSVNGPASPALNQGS

[11] = target: T1, Tyrosine-protein phosphatase non-receptor type 1; experiment: Inhibition of GST-tagged PTP1B (unknown origin) by plate reader analysis using DiFMUP as substrate
[12] = target: T4, Receptor-type tyrosine-protein phosphatase S; experiment: Inhibition of GST-tagged PTP-sigma (unknown origin) by plate reader analysis using DiFMUP as substrate
[13] = target: Receptor-type tyrosine-protein phosphatase F (Homo sapiens) (UniProt P10586); experiment: Inhibition of GST-tagged LAR (unknown origin) by plate reader analysis using DiFMUP as substrate
Homo sapiens [14] = species: Homo sapiens; experiment: Inhibition of GST-tagged PRL2 A/S mutant (unknown origin) by plate reader analysis using DiFMUP as substrate
[15] = target: T5, Dual specificity protein phosphatase 22 (Homo sapiens); experiment: Inhibition of GST-tagged MKPX (unknown origin) by plate reader analysis using DiFMUP as substrate
Papain (Carica papaya) = target: T7, Papain (Carica papaya) (UniProt P00784); experiment: Inhibition of papaya papain by plate reader analysis using Z-Phe-Arg-pNA substrate
T7 sequence (whole entry): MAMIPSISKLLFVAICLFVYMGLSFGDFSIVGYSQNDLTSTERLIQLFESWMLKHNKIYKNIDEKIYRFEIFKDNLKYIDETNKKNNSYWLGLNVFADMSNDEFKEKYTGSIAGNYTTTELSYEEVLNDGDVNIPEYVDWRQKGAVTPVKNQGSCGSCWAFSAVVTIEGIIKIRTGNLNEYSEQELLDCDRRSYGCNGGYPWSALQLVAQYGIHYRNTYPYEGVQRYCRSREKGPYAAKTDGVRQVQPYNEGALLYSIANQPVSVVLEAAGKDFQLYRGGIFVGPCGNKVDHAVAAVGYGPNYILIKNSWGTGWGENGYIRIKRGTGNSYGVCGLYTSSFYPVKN

Homo sapiens [16] = species: Homo sapiens; experiment: Selectivity ratio, ratio of IC50 for PTP sigma (unknown origin) to IC50 for PTP1B (unknown origin)
CHO [17] = experiment: Inhibition of PTP1B in CHO cells assessed as increase in phosphorylation of transfected human insulin receptor at 50 uM by western blot analysis; assay type: cell-based; conditions: Cricetulus griseus
Homo sapiens [18] = species: Homo sapiens; experiment: Selectivity ratio, ratio of IC50 for PTP1B (unknown origin) to IC50 for PTP sigma (unknown origin)

pKi [3]	inhibition [4]	inhibition [5]	inhibition [6]	inhibition (Homo sapiens [7])	inhibition [8]	inhibition [9]	inhibition [10]	pIC50 [11]	pIC50 [12]	inhibition [13]	inhibition (Homo sapiens [14])	inhibition [15]	inhibition (Papain (Carica papaya))	Ratio IC50 (Homo sapiens [16])	Ratio IC50 (Homo sapiens [18])	Molecule	Activity (CHO [1])	Activity (CHO [2])	Activity (CHO [17])
5.74	> 90%	> 90%	> 90%	inactive	inactive	inactive	inactive	5.44	4.81	–	–	–	–	–	–	O=C(Cn1cc(CN(CC(=O)N(Cc2ccc(C3CCCCC3)cc2)c2ccc(C(=O)O)c(O)c2)S(=O)(=O)c2cccc3cccnc23)nn1)Nc1ccc(C(=O)O)c(O)c1	Non-toxic	Dose-dependent effect	–
5.25	–	–	–	–	–	–	–	–	–	inactive	inactive	inactive	inactive	–	–	CN(CC(=O)N(Cc1ccc(C2CCCCC2)cc1)c1ccc(C(=O)O)c(O)c1)S(=O)(=O)c1cccc2cccnc12	–	–	–
–	> 90%	> 90%	> 90%	inactive	inactive	inactive	inactive	5.77	5.10	–	–	–	–	4	–	O=C(CCCn1cc(CN(CC(=O)N(Cc2ccc(C3CCCCC3)cc2)c2ccc(C(=O)O)c(O)c2)S(=O)(=O)c2cccc3cccnc23)nn1)Nc1ccc(C(=O)O)c(O)c1	Non-toxic	Dose-dependent effect	–
–	> 90%	> 90%	> 90%	inactive	inactive	inactive	inactive	5.62	6.05	–	–	–	–	–	–	O=C(CCCCCn1cc(CN(CC(=O)N(Cc2ccc(C3CCCCC3)cc2)c2ccc(C(=O)O)c(O)c2)S(=O)(=O)c2cccc3cccnc23)nn1)Nc1ccc(C(=O)O)c(O)c1	Non-toxic	Dose-dependent effect	–
–	> 90%	> 90%	> 90%	inactive	inactive	inactive	inactive	5.21	4.93	–	–	–	–	–	–	O=C(CCn1cc(CN(CC(=O)N(Cc2ccc(C3CCCCC3)cc2)c2ccc(C(=O)O)c(O)c2)S(=O)(=O)c2cccc3cccnc23)nn1)Nc1ccc(C(=O)O)c(O)c1	–	–	–
–	–	–	–	–	–	–	–	–	–	–	–	–	–	–	–	VANADATE	–	–	Active
–	> 90%	> 90%	> 90%	inactive	inactive	inactive	inactive	5.64	6.22	–	–	–	–	–	4	O=C(CCCCn1cc(CN(CC(=O)N(Cc2ccc(C3CCCCC3)cc2)c2ccc(C(=O)O)c(O)c2)S(=O)(=O)c2cccc3cccnc23)nn1)Nc1ccc(C(=O)O)c(O)c1	–	–	–
